Assay results as given in PubChem BioAssay AID248 (DTP/NCI, 2004).
Where “and” joins values, the source holds several entries; their conditions need not be identical. Equal entries are not always repeated. Toxic doses and inconclusive results are not listed. Cut-off read from the data, not from the text of the source: active = T/C of 150% or more; inactive = T/C below 125%.

Test system: L1210 leukemia ip in BDF1 mice, survival T/C
Experiment: NCI In Vivo Anticancer Drug Screen. Data for tumor model L1210 Leukemia (intraperitoneal) in B6D2F1 (BDF1) mice
Conditions: endpoint: mean survival time, higher = longer survival
Outline: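 Ratio derived from survival: compound-dosed mice over vehicle-dosed mice, all bearing a transplantable tumor.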

[1] = dose: 100.0 mg/kg/injection, schedule: Q01DX009 (ip), vehicle: saline
[2] = dose: 200.0 mg/kg/injection, schedule: Q01DX009 (ip), vehicle: saline
[3] = dose: 100.0 mg/kg/injection, schedule: Q04DX003 (ip), vehicle: Klucel (hydroxypropylcellulose) (HPC)
[4] = dose: 200.0 mg/kg/injection, schedule: Q04DX003 (ip), vehicle: Klucel (hydroxypropylcellulose) (HPC)
[5] = dose: 400.0 mg/kg/injection, schedule: Q04DX003 (ip), vehicle: Klucel (hydroxypropylcellulose) (HPC)
[6] = dose: 100.0 mg/kg/injection, schedule: Q01DX009 (ip), vehicle: saline with Tween-80
[7] = dose: 200.0 mg/kg/injection, schedule: Q01DX009 (ip), vehicle: saline with Tween-80
[8] = dose: 100.0 mg/kg/injection, schedule: Q01DX009 (ip), vehicle: Klucel (hydroxypropylcellulose) (HPC)
[9] = dose: 200.0 mg/kg/injection, schedule: Q01DX009 (ip), vehicle: Klucel (hydroxypropylcellulose) (HPC)
[10] = dose: 400.0 mg/kg/injection, schedule: Q01DX009 (ip), vehicle: Klucel (hydroxypropylcellulose) (HPC)

Measured: T/C

O=S(=O)(c1ccc(Cl)cc1)N1CCN(S(=O)(=O)c2ccc(Cl)cc2)C1
inactive: [1] 97 % of control | dose: 100.0 mg/kg/injection, schedule: Q04DX003 (ip), vehicle: saline 95 % of control | [2] 94 % of control | dose: 200.0 mg/kg/injection, schedule: Q04DX003 (ip), vehicle: saline 92 % of control | dose: 400.0 mg/kg/injection, schedule: Q01DX009 (ip), vehicle: saline 92 % of control | dose: 400.0 mg/kg/injection, schedule: Q04DX003 (ip), vehicle: saline 103 % of control

CCC[CH2][Sn]([Cl])([Cl])[CH2]CCC.c1ccncc1
inactive: dose: 3.0 mg/kg/injection, schedule: Q01DX009 (ip), vehicle: Klucel (hydroxypropylcellulose) (HPC) 93 % of control | dose: 6.0 mg/kg/injection, schedule: Q01DX009 (ip), vehicle: Klucel (hydroxypropylcellulose) (HPC) 107 % of control | dose: 12.0 mg/kg/injection, schedule: Q01DX009 (ip), vehicle: Klucel (hydroxypropylcellulose) (HPC) 92 % of control | dose: 12.5 mg/kg/injection, schedule: Q01DX009 (ip), vehicle: Klucel (hydroxypropylcellulose) (HPC) 87 % of control | dose: 12.5 mg/kg/injection, schedule: Q04DX002 (ip), vehicle: Klucel (hydroxypropylcellulose) (HPC) 91 % of control | dose: 25.0 mg/kg/injection, schedule: Q04DX002 (ip), vehicle: Klucel (hydroxypropylcellulose) (HPC) 106 % of control

Cc1nc(N)[nH]c(=O)c1CCCNc1cccc(C(F)(F)F)c1
inactive: dose: 100.0 mg/kg/injection, schedule: Q01DX001 (ip), vehicle: Klucel (hydroxypropylcellulose) (HPC) 92 % of control | dose: 200.0 mg/kg/injection, schedule: Q01DX001 (ip), vehicle: Klucel (hydroxypropylcellulose) (HPC) 92 % of control | dose: 400.0 mg/kg/injection, schedule: Q01DX001 (ip), vehicle: Klucel (hydroxypropylcellulose) (HPC) 97 % of control

O=[N+]([O-])c1cccc(/C=N/n2cn[nH]c2=S)c1
inactive: [3] 94 % of control | [4] 94 % of control | [5] 96 % of control

CN(C)c1ccc(C#N)cc1
inactive: dose: 1.5 mg/kg/injection, schedule: Q04DX002 (ip), vehicle: Klucel (hydroxypropylcellulose) (HPC) 107 % of control | dose: 3.1 mg/kg/injection, schedule: Q04DX002 (ip), vehicle: Klucel (hydroxypropylcellulose) (HPC) 107 % of control | dose: 6.25 mg/kg/injection, schedule: Q04DX002 (ip), vehicle: Klucel (hydroxypropylcellulose) (HPC) 97 % of control and 111 % of control

O=C1c2ccccc2C(=O)N1CCCn1c2ccccc2c2cnccc21
inactive: [6] 101 % of control | dose: 100.0 mg/kg/injection, schedule: Q04DX003 (ip), vehicle: saline with Tween-80 103 % of control | [7] 104 % of control | dose: 200.0 mg/kg/injection, schedule: Q04DX003 (ip), vehicle: saline with Tween-80 95 % of control | dose: 400.0 mg/kg/injection, schedule: Q01DX009 (ip), vehicle: saline with Tween-80 104 % of control | dose: 400.0 mg/kg/injection, schedule: Q04DX003 (ip), vehicle: saline with Tween-80 92 % of control

c1ccc([P+]2(c3ccccc3)CC[P+](c3ccccc3)(c3ccccc3)CC2)cc1
inactive: dose: 9.5 mg/kg/injection, schedule: Q01DX001 (ip), vehicle: saline 103 % of control | dose: 19.0 mg/kg/injection, schedule: Q01DX001 (ip), vehicle: saline 101 % of control | dose: 38.0 mg/kg/injection, schedule: Q01DX001 (ip), vehicle: saline 97 % of control | dose: 75.0 mg/kg/injection, schedule: Q01DX001 (ip), vehicle: saline 100 % of control

COc1cc(/C=N/NC(C)=O)ccc1O
inactive: dose: 50.0 mg/kg/injection, schedule: Q01DX009 (ip), vehicle: saline with Tween-80 97 % of control | [6] 94 % of control | [7] 110 % of control

c1ccc2c(c1)CCCN2
inactive: dose: 100.0 mg/kg/injection, schedule: Q01DX001 (ip), vehicle: saline 99 % of control | dose: 200.0 mg/kg/injection, schedule: Q01DX001 (ip), vehicle: saline 89 % of control | dose: 400.0 mg/kg/injection, schedule: Q01DX001 (ip), vehicle: saline 89 % of control

CN(C)C(N)=O
inactive: dose: 75.0 mg/kg/injection, schedule: Q01DX009 (ip), vehicle: saline 102 % of control | dose: 150.0 mg/kg/injection, schedule: Q01DX009 (ip), vehicle: saline 98 % of control | dose: 300.0 mg/kg/injection, schedule: Q01DX009 (ip), vehicle: saline 100 % of control

COc1ccc(Cl)cc1NC(=O)c1ccc(C(=O)Nc2cc(Cl)ccc2OC)cc1
inactive: dose: 50.0 mg/kg/injection, schedule: Q01DX009 (ip), vehicle: Klucel (hydroxypropylcellulose) (HPC) 109 % of control | [8] 90 % of control | [9] 86 % of control and 92 % of control | [10] 94 % of control

Fc1ccc(CC(F)(F)F)cc1
inactive: dose: 100.0 mg/kg/injection, schedule: Q01DX001 (ip), vehicle: saline with Tween-80 97 % of control | dose: 200.0 mg/kg/injection, schedule: Q01DX001 (ip), vehicle: saline with Tween-80 105 % of control | dose: 400.0 mg/kg/injection, schedule: Q01DX001 (ip), vehicle: saline with Tween-80 98 % of control

Cc1cc(Cl)cc(Cl)c1OCC(N)=O
inactive: dose: 100.0 mg/kg/injection, schedule: Q04DX002 (ip), vehicle: saline with Tween-80 94 % of control | dose: 200.0 mg/kg/injection, schedule: Q04DX002 (ip), vehicle: saline with Tween-80 94 % of control | dose: 400.0 mg/kg/injection, schedule: Q04DX002 (ip), vehicle: saline with Tween-80 94 % of control

Cc1ccc(OCCOc2ccc(NC(=O)CC(=O)c3cccc([N+](=O)[O-])c3)cc2)cc1
inactive: [8] 100 % of control | [3] 95 % of control | [9] 103 % of control | [4] 98 % of control | [10] 97 % of control | [5] 97 % of control

O=C(O)COc1ccc(Cl)cc1Cl
inactive: [1] 100 % of control | [2] 100 % of control

O=C(Oc1ccccc1)Oc1ccccc1
inactive: dose: 100.0 mg/kg/injection, schedule: Q04DX002 (ip), vehicle: Klucel (hydroxypropylcellulose) (HPC) 96 % of control | dose: 200.0 mg/kg/injection, schedule: Q04DX002 (ip), vehicle: Klucel (hydroxypropylcellulose) (HPC) 96 % of control | dose: 400.0 mg/kg/injection, schedule: Q04DX002 (ip), vehicle: Klucel (hydroxypropylcellulose) (HPC) 96 % of control

CCCCCC(O)C1C(=O)OC(C)C(O)/C=C/C=C/C=C/C=C/C=C(\C)C(O)C(O)C(O)CC(O)CC(O)CC(O)CC(O)CC1O (stereo unspecified)
inactive: dose: 0.5 mg/kg/injection, schedule: Q01DX001 (ip), vehicle: saline 97 % of control | dose: 1.0 mg/kg/injection, schedule: Q01DX001 (ip), vehicle: saline 97 % of control | dose: 2.0 mg/kg/injection, schedule: Q01DX001 (ip), vehicle: saline 95 % of control | dose: 4.0 mg/kg/injection, schedule: Q01DX001 (ip), vehicle: saline 92 % of control | dose: 8.0 mg/kg/injection, schedule: Q01DX001 (ip), vehicle: saline 97 % of control

CN1CCN=C1c1ccc(NC(=O)c2ccc(C(=O)Nc3ccc(C4=NCCN4C)cc3)c(Cl)c2)cc1
inactive: dose: 1.5 mg/kg/injection, schedule: Q01DX Z (ip), vehicle: water 101 % of control | dose: 3.0 mg/kg/injection, schedule: Q01DX Z (ip), vehicle: water 103 % of control | dose: 6.0 mg/kg/injection, schedule: Q01DX Z (ip), vehicle: water 119 % of control

Nc1nc(N)c2nc(CNCCc3ccccc3)cnc2n1
inactive: dose: 20.0 mg/kg/injection, schedule: Q01DX009 (ip), vehicle: Klucel (hydroxypropylcellulose) (HPC) 100 % of control | dose: 40.0 mg/kg/injection, schedule: Q01DX009 (ip), vehicle: Klucel (hydroxypropylcellulose) (HPC) 102 % of control
